For this experiment, the target named is T1, recombinant human Flag-tagged PARP7 (amino acids 456-657) (Homo sapiens, UniProt Q7Z3E1).
T1 construct: recombinant human Flag-tagged PARP7 (amino acids 456-657)
T1 sequence (Q7Z3E1 456-657): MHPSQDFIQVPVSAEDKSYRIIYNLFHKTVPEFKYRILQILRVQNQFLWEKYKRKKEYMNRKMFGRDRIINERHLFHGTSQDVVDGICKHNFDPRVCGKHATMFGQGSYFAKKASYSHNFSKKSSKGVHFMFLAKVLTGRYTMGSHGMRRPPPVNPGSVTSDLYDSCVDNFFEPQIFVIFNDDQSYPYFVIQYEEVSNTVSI
The experiment in a line: PARP7 biochemical DELFIA assay (auto-MARylation). As to conditions: DELFIA readout, IC50 class. The protocol:
A suitable assay may be conducted using 10-30 nM PARP7 (amino acids 456-657), 2 μM biotin-NAD assay solution in 20 mM HEPES (pH 7.5), 100 mM NaCl, 2 mM DTT, 0.1% BSA (w/v), 0.02% Tween (v/v) assay buffer. MARylation may take place for 2-3 h at room temperature and may be detected using a dissociation-enhanced lanthanide fluorescence immunoassay (DELFIA) readout. This assay format has been recently utilised for screening for modulators of PARP7 and other MonoPARP enzymes ([…]. et al. Forced Self-Modification Assays as a Strategy to Screen MonoPARP Enzymes. SLAS Discovery. 25; 241-252, (2020)). A particularly suitable assay is described in the Examples below. Optiplate HB 384-well plates were coated with anti-FLAG antibody, supplied as a 4 mg/ml solution, using a Na2CO3/HCO3 coating buffer at pH 9.6, overnight at 4° C., in order to achieve a final immobilisation per well of 0.3 μg. Wells were then washed 3× in coating wash buffer (PBS/0.05% Tween (v/v)), blocked with 2% BSA (w/v) in coating wash buffer and washed 3 further times prior to assay. For the assay 20 μl of 12.5-37.5 nM recombinant human Flag-tagged PARP7 (amino acids 456-657) was added to each well of the 384-well plate for 30 min at room temperature. 50 nl of test compound in DMSO was added using pintool technology and plates were incubated for a further 30 min at room temperature. 5 μl of 15 μM biotin-NAD^+ assay solution in 20 mM HEPES (pH 7.5), 100 mM NaCl, 2 mM DTT, 0.1% BSA (w/v), 0.02% Tween (v/v) assay buffer was then added and MARylation proceeded for 2-3 h at room temperature prior to the addition of 5 μl of 12 mM NAD^+ quenching solution. After 30 min at room temperature, assay solution was removed and following washing 5 times, 100 μl of a 1:1000 dilution of DELFIA Eu-N1 Streptavidin reagent was added. Plates were then incubated for 30 min at room temperature. Reaction mixture was removed and plates washed 5 times prior to the addition of 25 μl DELFIA enhancement solution. Following incubation for 30 min at room temperature, fluorescence was read on either an Envision or Pherastar FS (Ex337 nm, Em620 nm).

Experimental findings from patent US20240217968A1, “PHARMACEUTICAL COMPOUND” (DUKE STREET BIO LIMITED, priority 2021, published 2024) are described below.

Take `CC(COCC(=O)N1CCN(c2ncc(C(F)(F)F)cn2)CC1)Oc1cccc2c(=O)[nH]ncc12` (racemic) [Compound 33, 5-((1-(2-oxo-2-(4-(5-(trifluoromethyl)pyrimidin-2-yl)piperazin-1-yl)ethoxy)propan-2-yl)oxy)phthalazin-1(2H)-one]: the IC50 lay in the range of 100 to 1000 nM.

Turning to `CC1Cc2c(cn[nH]c2=O)N(CCOCCC(=O)N2CCN(c3ncc(C(F)(F)F)cn3)CC2)C1` (single isomer, unassigned) [Compound 64, 3-methyl-1-(2-(3-oxo-3-(4-(5-(trifluoromethyl)pyrimidin-2-yl)piperazin-1-yl)propoxy)ethyl)-2,3,4,6-tetrahydropyrido[2,3-d]pyridazin-5(1H)-one], the IC50 was ≤ 100 nM.

Consider `CC1Cc2c(cn[nH]c2=O)N(CCOCCC(=O)N2CCN(c3ncc(C(F)(F)F)cn3)CC2)C1` (single isomer, unassigned) [Compound 65, 3-methyl-1-(2-(3-oxo-3-(4-(5-(trifluoromethyl)pyrimidin-2-yl)piperazin-1-yl)propoxy)ethyl)-2,3,4,6-tetrahydropyrido[2,3-d]pyridazin-5(1H)-one], for which the IC50 is ≤ 100 nM.

Regarding `CC(COCCC(=O)N1CCN(c2ccc(C#N)cn2)CC1)c1cccc2c(=O)[nH]ncc12` (single isomer, unassigned) [Compound 71], the IC50 is ≤ 100 nM.

`CC(COCCC(=O)N1CCN(c2ncc(C(F)(F)F)cn2)CC1)c1cccc2c(=O)[nH]ncc12` (single isomer, unassigned) [Compound 72, 5-(1-(3-oxo-3-(4-(5-(trifluoromethyl)pyrimidin-2-yl)piperazin-1-yl)propoxy)propan-2-yl)phthalazin-1(2H)-one]: the IC50 lay within 1000 to 10000 nM.

On to `CC(COCCC(=O)N1CCN(c2ncc(C(F)(F)F)cn2)CC1)c1cccc2c(=O)[nH]ncc12` (single isomer, unassigned) [Compound 73, 5-(1-(3-oxo-3-(4-(5-(trifluoromethyl)pyrimidin-2-yl)piperazin-1-yl)propoxy)propan-2-yl)phthalazin-1(2H)-one], for which the 50% inhibitory concentration (IC50) was ≤ 100 nM.

`CC1CN(c2ccc(C#N)cn2)CCN1C(=O)CCOCCc1cccc2c(=O)[nH]ncc12` (single isomer, unassigned) [Compound 86]: the IC50 is ≤ 100 nM.

Take `CC(OCCCC(=O)N1CCN(c2ncc(C(F)(F)F)cn2)CC1)c1cccc2c(=O)[nH]ncc12` (single isomer, unassigned) [Compound 122]: the IC50 was ≤ 100 nM.

In the case of `CC(OCCCC(=O)N1CCN(c2ncc(C(F)(F)F)cn2)CC1)c1cc(F)cc2c(=O)[nH]ncc12` (single isomer, unassigned) [Compound 130], the IC50 is ≤ 100 nM.

With `O=C(CCOCCc1cccc2c(=O)[nH]ncc12)N1CCN(c2ncc(C(F)(F)F)cn2)C(CO)C1` (single isomer, unassigned) [Compound 149], the IC50 is ≤ 100 nM.

As for `Cc1cn(C(C)COCCC(=O)N2CCN(c3ncc(C(F)(F)F)cn3)CC2)c2cn[nH]c(=O)c12` (single isomer, unassigned) [Compound 151], the IC50 is ≤ 100 nM.

In the case of `CC(OCCCC(=O)N1CCN(c2ncc(C(F)(F)F)cn2)CC1)c1cc(Cl)cc2c(=O)[nH]ncc12` (single isomer, unassigned) [Compound 174, 7-chloro-5-(1-(4-oxo-4-(4-(5-(trifluoromethyl)pyrimidin-2-yl)piperazin-1-yl)butoxy)ethyl)phthalazin-1(2H)-one], the IC50 is ≤ 100 nM.

On to `CC(OCCCC(=O)N1CCN(c2ncc(C(F)(F)F)cn2)CC1)c1cc(Cl)cc2c(=O)[nH]ncc12` (single isomer, unassigned) [Compound 175, 7-chloro-5-(1-(4-oxo-4-(4-(5-(trifluoromethyl)pyrimidin-2-yl)piperazin-1-yl)butoxy)ethyl)phthalazin-1(2H)-one], for which the IC50 was ≤ 100 nM.

Take `CC(COCCC(=O)N1CCN(c2ncc(C(F)(F)F)cn2)CC1)n1nc(C(F)(F)F)c2c(=O)[nH]ncc21` (single isomer, unassigned) [Compound 176, 1-(1-(3-oxo-3-(4-(5-(trifluoromethyl)pyrimidin-2-yl)piperazin-1-yl)propoxy)propan-2-yl)-3-(trifluoromethyl)-1,5-dihydro-4H-pyrazolo[3,4-d]pyridazin-4-one]: the IC50 is ≤ 100 nM.

Turning to `CC(COCCC(=O)N1CCN(c2ncc(Cl)cn2)CC1)n1nc(C(F)(F)F)c2c(=O)[nH]ncc21` (single isomer, unassigned) [Compound 185], the IC50 was ≤ 100 nM.

For the compound `CC1CN(C(=O)CCOCCn2nc(C(F)(F)F)c3c(=O)[nH]ncc32)CCN1c1ncc(C(F)(F)F)cn1` (single isomer, unassigned) [Compound 187], the IC50 was ≤ 100 nM.

Consider `CC1CN(C(=O)CCOCCn2nc(C(F)(F)F)c3c(=O)[nH]ncc32)CCN1c1ncc(C(F)(F)F)cn1` (single isomer, unassigned) [Compound 188], for which the IC50 was ≤ 100 nM.

Consider `CC(COCCC(=O)N1CCN(c2ccc(C#N)cn2)CC1)n1ncc2c(=O)[nH]ncc21` (single isomer, unassigned) [Compound 189], for which the IC50 is ≤ 100 nM.

Turning to `CC(COCCC(=O)N1CCN(c2ccc(C#N)cn2)CC1)n1ncc2c(=O)[nH]ncc21` (single isomer, unassigned) [Compound 190], the IC50 lay in the range of 100 to 1000 nM.

For the compound `CCC(OCCCC(=O)N1CCN(c2ncc(C(F)(F)F)cn2)CC1)c1cccc2c(=O)[nH]ncc12` (single isomer, unassigned) [Compound 210], the IC50 was ≤ 100 nM.

For the compound `O=C(CCCOC(c1cccc2c(=O)[nH]ncc12)C(F)(F)F)N1CCN(c2ncc(C(F)(F)F)cn2)CC1` (single isomer, unassigned) [Compound 221, 5-(2,2,2-trifluoro-1-(4-oxo-4-(4-(5-(trifluoromethyl)pyrimidin-2-yl)piperazin-1-yl)butoxy)ethyl)phthalazin-1(2H)-one], the IC50 was 100 to 1000 nM.

With `O=C(CCCOC(c1cccc2c(=O)[nH]ncc12)C(F)(F)F)N1CCN(c2ncc(C(F)(F)F)cn2)CC1` (single isomer, unassigned) [Compound 222, 5-(2,2,2-trifluoro-1-(4-oxo-4-(4-(5-(trifluoromethyl)pyrimidin-2-yl)piperazin-1-yl)butoxy)ethyl)phthalazin-1(2H)-one], the IC50 lay in the range of 100 to 1000 nM.

Turning to `CC(COCCC(=O)N1CCN(c2ncc(C(F)(F)F)cn2)CC1)n1cc(C(F)(F)F)c2c(=O)[nH]ncc21` (single isomer, unassigned) [Compound 223, 1-(1-(3-oxo-3-(4-(5-(trifluoromethyl)pyrimidin-2-yl)piperazin-1-yl)propoxy)propan-2-yl)-3-(trifluoromethyl)-1,5-dihydro-4H-pyrrolo[2,3-d]pyridazin-4-one], the half-inhibitory concentration (IC50) was ≤ 100 nM.

For `CC(COCCC(=O)N1CCN(c2ncc(C(F)(F)F)cn2)CC1)n1cc(C(F)(F)F)c2c(=O)[nH]ncc21` (single isomer, unassigned) [Compound 224, 1-(1-(3-oxo-3-(4-(5-(trifluoromethyl)pyrimidin-2-yl)piperazin-1-yl)propoxy)propan-2-yl)-3-(trifluoromethyl)-1,5-dihydro-4H-pyrrolo[2,3-d]pyridazin-4-one], the IC50 is ≤ 100 nM.

In the case of `Cc1nn(C(C)COCCC(=O)N2CCN(c3ncc(C(F)(F)F)cn3)CC2)c2cn[nH]c(=O)c12` (single isomer, unassigned) [Compound 245], the IC50 was ≤ 100 nM.

With `CC(COCCC(=O)N1CCN(c2ncc(F)cn2)CC1)n1nc(C(F)(F)F)c2c(=O)[nH]ncc21` (single isomer, unassigned) [Compound 248, 1-(1-(3-(4-(5-fluoropyrimidin-2-yl)piperazin-1-yl)-3-oxopropoxy)propan-2-yl)-3-(trifluoromethyl)-1,5-dihydro-4H-pyrazolo[3,4-d]pyridazin-4-one], the IC50 is ≤ 100 nM.

On to `CC(COCCC(=O)N1CCN(c2ncc(F)cn2)CC1)n1nc(C(F)(F)F)c2c(=O)[nH]ncc21` (single isomer, unassigned) [Compound 249, 1-(1-(3-(4-(5-fluoropyrimidin-2-yl)piperazin-1-yl)-3-oxopropoxy)propan-2-yl)-3-(trifluoromethyl)-1,5-dihydro-4H-pyrazolo[3,4-d]pyridazin-4-one], for which the IC50 was ≤ 100 nM.

In the case of `CC(COCCC(=O)N1CCN(c2nc(C#N)cs2)CC1)n1nc(C(F)(F)F)c2c(=O)[nH]ncc21` (single isomer, unassigned) [Compound 250], the IC50 lay within 1000 to 10000 nM.
